Reference: US8613962B2, “Prophylactic or alleviating agent for peripheral nerve disorder induced by anti-cancer agent” (Kyushu University, National University Corporation, priority 2007, dated 2013)

How the values were obtained:
[1] = tested on: rat peripheral nerve disorder induced by oxaliplatin; conditions: rats; oxaliplatin alone 4 mg/kg i.p.; second week; FIG. 6
[2] = tested on: rat peripheral nerve disorder induced by oxaliplatin; conditions: rats; oxaliplatin alone 4 mg/kg i.p. twice per week; second week; FIG. 5
[3] = tested on: rat peripheral nerve disorder induced by paclitaxel; type: in vivo; conditions: SD male rats; paclitaxel alone 6 mg/kg i.p. once a week for 4 weeks; FIG. 1
[4] = tested on: DRG cells; type: cell-based, rat; conditions: 10 ng/mL paclitaxel only, 168 hours, FIG. 4
[5] = tested on: rat peripheral nerve disorder induced by paclitaxel; type: in vivo; conditions: SD male rats; paclitaxel alone 6 mg/kg i.p.; FIG. 2
[6] = tested on: PC12 cells; type: cell-based, rat; conditions: forskolin-induced, 10 ng/mL paclitaxel only, 168 hours, FIG. 3
[7] = tested on: rat peripheral nerve disorder induced by paclitaxel; type: in vivo; conditions: rats; paclitaxel alone
Protocol: 7 and 8-week-old SD male rats were used as experimental animals and separated into three groups of a control group, group administered with paclitaxel, and group administered with paclitaxel and the test substance (group administered with paclitaxel+test substance). To the group administered with paclitaxel, paclitaxel (6 mg/kg) was intraperitoneally administered once a week for 4 weeks in a total of 4 times. To the group administered with paclitaxel+test substance, the test substance (200 NU/kg) was orally administered three times a week, that is, just before the paclitaxel administration and on days 1 and 2 after the paclitaxel administration, for 4 weeks in a total of 12 times. To the control group, a solvent (polyoxyethylene castor oil:ethanol=1:1) used in the paclitaxel administration was similarly administered.

SMILES | latent time to posterior foot avoidance (cold plate test, 4° C.) [1] | 50% reaction threshold value (von Frey test), compared with control group [2] | 50% reaction threshold value (von Frey test), compared with control group [3] | neurite outgrowth (neurite length) [4] | latent time to avoidance reaction (acetone test, cold stimuli) [5] | neurite outgrowth (neurite length) [6] | latent time (plantar test, heat stimuli) [7]
O=C1[O][Pt]2([NH][C@@H]3CCCC[C@H]3[NH]2)[O]C1=O [oxaliplatin] | remarkably shortened | remarkably lowered | – | – | – | – | –
CC(=O)O[C@H]1C(=O)[C@@]2(C)[C@H]([C@H](OC(=O)c3ccccc3)[C@]3(O)C[C@H](OC(=O)[C@H](O)[C@@H](NC(=O)c4ccccc4)c4ccccc4)C(C)=C1C3(C)C)[C@]1(OC(C)=O)CO[C@@H]1C[C@@H]2O [paclitaxel] | – | – | remarkably lowered | inhibited | remarkably shortened | inhibited | not shortened
